{
  "source": "patent US20240023806A1",
  "about": "“METHOD FOR SELF-DIAGNOSIS AND METHOD FOR SELF-TREATMENT OF POSTERIOR SEGMENT EYE DISEASE” (priority 2022, published 2024)",
  "key": {"[1]": {"tested_on": "inflammatory vitreous opacity due to endotoxin-induced uveitis", "assay": "Endotoxin-induced uveitis (EIU) rabbit model: vitreous humor protein measurement", "format": "in vivo", "details": "day 2 after intravitreal LPS 100 ng; DEX solution 100 μg/100 μL injected into the choroid through the tube; 4 eyes; p<0.05 vs control (LPS only)", "description": "(§1) In order to investigate the effectiveness of the method for self-treatment of posterior segment eye disease according to an aspect of the present invention, whether the injection of dexamethasone (DEX) into the choroid through a tube suppresses inflammatory vitreous opacity due to endotoxin-induced uveitis was examined in a rabbit model.\nAfter the tube insertion, endotoxin-induced uveitis (HU) was induced in 8 rabbits (8 eyes) by lipopolysaccharide (LPS) derived from Escherichia coli (manufactured by Sigma-Aldrich Co. LLC). 100 ng of LPS solution was injected into the vitreous body using a 27G needle at a 12 o'clock position, 3 mm posterior to the corneal limbus. […] Since maximal inflammatory symptoms were seen 2 days after injection, inflammatory vitreous opacity was evaluated 2 days after injection by ophthalmological observation and vitreous humor protein measurement. The amount of DEX injected was entered into the application and the amount of DEX was determined on the computer. The data on the quantity of DEX was then transmitted to a wireless injector (“Tofuty”, manufactured by ICOMES LAB Co., Ltd.). […]\nFor protein measurements, four eyes in each group were used on day 2 after procedure. […] The protein content of vitreous humor was determined using a Bio-Rad assay kit with bovine serum albumin as a standard-dilution reference curve. […]"}, "[2]": {"tested_on": "inflammatory vitreous opacity due to endotoxin-induced uveitis", "assay": "Endotoxin-induced uveitis (EIU) rabbit model: clinical grading of inflammatory vitreous opacity after DEX injection into the choroid through a tube", "format": "in vivo", "details": "day 2 after intravitreal LPS 100 ng; DEX solution 100 μg/100 μL injected into the choroid through the tube; 4 eyes; p<0.05 vs control (LPS only)", "method": "as §1\nAll experiments were conducted in accordance with ARVO Statement for the Use of Animals in Ophthalmic and Vision Research and the Guidelines for Experimental Animals at Iwate Medical University. Three-month-old Japanese white rabbits (purchased from KITAYAMALABES CO., LTD.) weighing 2 to 2.5 kg were used. […]\nAfter the tube insertion, endotoxin-induced uveitis (HU) was induced in 8 rabbits (8 eyes) by lipopolysaccharide (LPS) derived from Escherichia coli (manufactured by Sigma-Aldrich Co. LLC). […] Since maximal inflammatory symptoms were seen 2 days after injection, inflammatory vitreous opacity was evaluated 2 days after injection by ophthalmological observation and vitreous humor protein measurement. The amount of DEX injected was entered into the application and the amount of DEX was determined on the computer. The data on the quantity of DEX was then transmitted to a wireless injector (“Tofuty”, manufactured by ICOMES LAB Co., Ltd.). […]"}},
  "data": [
    {"smiles": "C[C@@H]1C[C@H]2[C@@H]3CCC4=CC(=O)C=C[C@]4(C)[C@@]3(F)[C@@H](O)C[C@]2(C)[C@@]1(O)C(=O)CO", "note": "[DEX, dexamethasone]", "values": [
      {"measurement": "Protein concentration in vitreous humor", "setting": "[1]", "result": "20.5 ± 15.0", "unit": "mg/mL"},
      {"measurement": "Clinical grading of vitreous opacity (grade 0 to 4)", "setting": "[2]", "result": "0.75±0.96"}
    ]}
  ]
}
